Calls of active or inactive are those of the source.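 How the source made its calls: active means compounds raising the signal whose fitted half-maximal concentration is at or below their top tested dose (cut at about 25 µM in these data); inconclusive means flat fit at 30 to 70% activity, or a poor fit; inactive means the rest.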
What follows are molecules tested on INS-1E rat beta cells, no cytokines, CellTiter-Glo ATP, 48 h (assay: ATP level change in INS-1E without cytokines, dose response, counter-screen for beta-cell apoptosis protection project, INS-1E rat cells, ATP luminescence, cherry pick (AID 463229)).

Row | Compound | AC50
1 | CCOc1ccc(/C=N/NC(=O)c2[nH]ncc2Br)c(O)c1 | 3.66 µM
2 | CC(C)(C)c1cc(C(=O)N/N=C/c2ccc([N+](=O)[O-])s2)n[nH]1 | 6.84 µM
3 | Nc1c(C(=O)Nc2ccc3c(c2)OCCO3)nnn1Cc1ccccc1Cl | 5.53 µM
4 | COc1ccc(N=Nc2ccc(O)c3ncccc23)cc1 | 4.26 µM
5 | Cc1ccccc1/C=C/C(=O)c1ccc([N+](=O)[O-])o1 | 5.07 µM
6 | Cc1cc(=O)[nH]c(N/N=C/c2ccccn2)n1 | 5.21 µM
7 | CCCOc1ccc(Cc2c(Cl)nc(SC)nc2NC)cc1 | 6.05 µM
8 | CN1/C(=C\P(=O)(N(C)C)N(C)C)C(C)(C)c2ccccc21 | 4.86 µM
9 | CN1/C(=C\C(=S)NC(=O)c2ccccc2Cl)C(C)(C)c2ccccc21 | 7.37 µM
10 | COc1ccc(O)c(C(=O)c2cnc3nc4ccccc4n3c2)c1 | 6.33 µM
11 | Brc1ccccc1CN1CCN(Cc2c[nH]c3ccccc23)CC1 | 2.76 µM
12 | C=CCc1cccc(/C=N/NC(=O)CCC(=O)Nc2ccc(F)cc2)c1O | 10.2 µM
13 | C/C(=N\NC(=O)c1cccc(Br)c1)c1ccccn1 | 1.32 µM
14 | O=Nc1c(O)c2ccccc2c2ccccc12 | 7.61 µM
15 | COc1cnc(-c2ccccn2)nc1NC(C)C | 17.2 µM
16 | Cc1csc2ncnc(N3CCN(S(=O)(=O)c4cccc(C(F)(F)F)c4)CC3)c12 | 5.81 µM
17 | Cc1ccc(S(=O)(=O)N2CCOCC2)cc1C(=O)Nc1nc(-c2ccccn2)cs1 | 7.77 µM
18 | Cc1nc2c(-c3ccc(Cl)cc3)c(C)[nH]n2c(=O)c1Cc1ccccc1 | 5.46 µM
19 | CCOc1ccc(CN2CCN(Cc3c[nH]c4ccccc34)CC2)cc1 | 7.75 µM
20 | CCC(=O)NC(c1ccc(OC)cc1)c1cc(Cl)c2cccnc2c1O (stereo not drawn) | 6.63 µM
21 | COc1ccc(/C=C/c2nc3ccccc3n2C)cc1 | 3.13 µM
22 | N/C(=N\OC(=O)c1cccc(Cn2cc(C(F)(F)F)ccc2=O)c1)c1ccc(Cl)cc1 | 8.25 µM

Row | Compound | AC50
23 | O=C(c1cc(-c2cccc(O)c2)on1)N1CCN(C(c2ccccc2)c2ccccc2)CC1 | 14.4 µM
24 | CCOC(=O)CC1CCCCN1C(=O)c1cc(COc2cccc3cnccc23)on1 (stereo not drawn) | 8.19 µM
25 | CCCCCCCCCCCCCCCC[n+]1cccc(C(=O)N(CC)CC)c1 | 8.01 µM
26 | COC1=CC(=O)[C@]2(C=C1OC)OC[C@@H]1Oc3c(ccc4c3C=CC(C)(C)O4)C(=O)[C@@H]12 | 1.07 µM
27 | Cc1cccc(NC(=O)c2nc(S(=O)(=O)Cc3ccccc3)ncc2Cl)c1 | 15.8 µM
28 | COc1cccc(/C=N/Nc2nc3ccccc3n3cnnc23)c1O | 7.23 µM
29 | O=C(Nc1ccc(Cl)cc1)c1nc[nH]c1C(=O)NCCN(CCNC(=O)c1[nH]cnc1C(=O)Nc1ccc(Cl)cc1)CCNC(=O)c1[nH]cnc1C(=O)Nc1ccc(Cl)cc1 | 8.08 µM
30 | Cc1ccc(S(=O)(=O)/N=C2/C=C(Sc3ncn[nH]3)C(=O)c3ccccc32)cc1 | 8.08 µM
31 | CCOC(=O)N1CCN(S(=O)(=O)c2ccc(C(=O)NNc3nc4cc(C)cc(C)c4s3)cc2)CC1 | 6.01 µM
32 | Cc1cc(C)c2nc(NNC(=O)c3ccc(S(=O)(=O)N4CC(C)CC(C)C4)cc3)sc2c1 (stereo not drawn) | 4.75 µM
33 | C=C1C(=O)O[C@@H]2C[C@@H](C)[C@@H]3C=CC(=O)[C@@]3(C)[C@@H](O)[C@H]12 | 2.02 µM
34 | CCN1C/C(=C/c2ccc(OC)c(O)c2)C(=O)/C(=C/c2ccc(OC)c(O)c2)C1 | 4.92 µM
35 | CCOc1ccc(OCc2ccc(C(=O)NN=Cc3ccc[nH]3)cc2)cc1 | 0.739 µM
36 | COc1ccc(C2CC(c3ccc4ccccc4c3OC(C)=O)=NN2C(C)=O)cc1 (stereo not drawn) | 8.47 µM
37 | Cc1ccc(O)c(NC(=S)NC(=O)c2ccc(-c3ccc(Cl)cc3)o2)c1 | 23.9 µM
38 | CC(C)[C@H]1C(=O)O[C@H](C(C)C)C(=O)N(C)[C@@H](C(C)C)C(=O)O[C@H](C(C)C)C(=O)N(C)[C@@H](C(C)C)C(=O)O[C@H](C(C)C)C(=O)N1C | 3.8 µM
39 | O=C(N/N=C(\c1ccccc1)c1ccccn1)c1ccccc1Cl | 6.14 µM
40 | COC1=C(Nc2ccccc2OC)C(=O)c2ccccc2C1=O | > 26 µM (inactive)
41 | CCCCCCSc1cc(-c2nc3ccc(C)cn3c2NCCCC)ccc1OC | 6.79 µM
42 | CN1/C(=C\C=N\NC(=O)c2ccc(O)cc2)C(C)(C)c2ccccc21 | 7.5 µM
43 | Cc1ccc(S(=O)(=O)N2CCN(c3ncnc4ccccc34)CC2)cc1 | 6.28 µM
44 | CCOC(=O)c1c(C)oc2c1C(=O)c1ccccc1C2=O | 12.3 µM

Row | Compound | AC50
45 | CCOc1ccc(S(=O)(=O)N(C)c2ccc(OCC(=O)Nc3nc4ccccc4s3)cc2)cc1 | 7.9 µM
46 | CC1(C)CC(N2CCN(c3ccccc3)CC2)=CC(=[N+]2CCCC2)C1 | 1.79 µM
47 | O=C(NNC(=S)Nc1ccc(Cl)c(Cl)c1)c1ccccn1 | 4.35 µM
48 | Cc1cc(F)ccc1S(=O)(=O)Nc1ccccc1C(=O)Nc1ccccc1-c1nc2ccccc2[nH]1 | 7.72 µM
49 | N=c1c2c(ncn1CCCO)Oc1ccc3ccccc3c1C2c1ccccc1 (stereo not drawn) | > 26 µM (inactive)
50 | O=C(NNc1ccccc1Br)C(O)(c1cccc(C(F)(F)F)c1)c1cccc(C(F)(F)F)c1 | 7.06 µM
51 | CCOc1ccc(-n2c(-c3ccccc3)c[n+]3c2CCC3)cc1 | 1.53 µM
52 | COc1cccc(/C=N/Nc2ncnc(Cl)c2N)c1O | 4.32 µM
53 | Cc1cc(C(=O)N/N=C/c2cc(Br)cc(Br)c2OC(=O)c2cccc(F)c2)n[nH]1 | 4.79 µM
54 | CCCNC(=O)c1ccc2c(=O)c(O)c(-c3cccc(Br)c3)[nH]c2c1 | 4.63 µM
55 | CC1=NNC(=O)/C1=C\c1cn(-c2ccccc2)nc1-c1ccccc1 | 7.57 µM
56 | Cc1ccc(S(=O)(=O)Nc2ccccc2N(C)S(=O)(=O)c2ccc(C)cc2)cc1 | 15.6 µM
57 | CCOC(=O)N1CCN(Cc2cc(Cl)c3cccnc3c2O)CC1 | 13.2 µM
58 | COc1ccc(OC)c2sc(N(CCCN(C)C)C(=O)c3ccc(S(=O)(=O)N4CCc5ccccc5C4)cc3)nc12 | 2.23 µM
59 | CCOC(=O)c1nc(NNC(=O)c2ccc([N+](=O)[O-])cc2)sc1C | 7.04 µM
60 | Cc1ccc(-c2cn(-c3ccc(SC(F)F)cc3)c3[n+]2CCC3)cc1 | 5.91 µM
61 | Cc1nc(N/N=C/c2ccccn2)sc1C | 9.42 µM
62 | Cc1ccccc1N=Nc1ccc(O)c2ncccc12 | 4.41 µM
63 | COC(=O)c1cc(=O)n(CCc2ccccc2F)c(=Nc2ccc(F)c(Cl)c2)s1 | 11.1 µM
64 | S=C(Nc1ccc(Nc2ccccc2)cc1)Nc1ccccn1 | 11.5 µM
65 | C=CCC1(CC=C)CCCN1C(=O)c1cc(COc2ccc(C)nc2)on1 | 2.54 µM
66 | CC1=C/C(=N\OS(=O)(=O)c2ccccc2)C(C(C)C)=CC1=O | 6.84 µM

Row | Compound | AC50
67 | COc1ccc(-c2cc(-c3ccccc3)[n+](C)c(-c3ccccc3)c2)cc1 | 4.28 µM
68 | Cc1oc2c(c1C(=O)N1CCC(C)CC1)C(=O)c1ccccc1C2=O | 10.8 µM
69 | CC(=O)Oc1c(I)cc(I)cc1C(=O)Nc1ccc(Cl)cc1 | 14.8 µM
70 | COC(=O)C1=C(C)N(Cc2ccccc2)C(=NCc2cccc(C(F)(F)F)c2)N[C@H]1c1cccc(F)c1 | 8.07 µM
71 | O=[N+]([O-])c1ccc(O)c(/C=N/Nc2ccccn2)c1 | 1.84 µM
72 | CC(=O)c1cccc(N=c2scc(-c3ccc(S(=O)(=O)N4CCOCC4)cc3)n2CCO)c1 | 3.22 µM
73 | C=C(C)C(=O)OCC(O)COc1ccc(C(C)(C)c2ccc(OCC(O)COC(=O)C(=C)C)cc2)cc1 (stereo not drawn) | 19.2 µM
74 | Cc1cc(C)nc(SCC(=O)NC2=NN=C(c3ccc(Br)cc3)CS2)n1 | 2.52 µM
75 | C=CCc1cccc(/C=N/NC(=O)c2ccc3nc[nH]c3c2)c1O | 6.52 µM
76 | O=C(C#Cc1ccccc1)c1ccco1 | 7.8 µM
77 | O=C(Nc1ccc(Cl)cc1)/C(=C/c1cccc(O)c1)c1nc2ccccc2s1 | 4.46 µM
78 | O=C(NCc1cccnc1)/C(=C/c1ccc(-c2ccc(Cl)cc2)o1)S(=O)(=O)c1ccccc1 | 6.93 µM
79 | CCN1/C(=C/C(C)=C/c2sc3ccccc3[n+]2CC)Sc2ccccc21 | < 0.195 µM
80 | Oc1ccc(CCNc2ncnc3ccc(Cl)cc23)cc1 | 5.59 µM
81 | O=C(NCCc1ccccc1)[C@@H]1CC=C[C@@H]2CCN(Cc3ccc(Cl)c(Cl)c3)C(=O)[C@@H]21 | 13.2 µM
82 | Clc1ccc(C(c2ccc(Cl)cc2)n2cc[n+](CC(OCc3ccc(Cl)cc3Cl)c3ccc(Cl)cc3Cl)c2)cc1 (stereo not drawn) | 3.69 µM
83 | O=C(N/N=C/c1ccc(O)cc1O)/C(=C/c1ccccc1)CCO | 6.54 µM
84 | CCCCCCCCCCOC(=O)Cn1c(COc2ccccc2OC)[n+](C)c2ccccc21 | 1.09 µM
85 | COc1ccc(OC)c2[nH]c(C(=O)N/N=C/c3ccccc3O)cc12 | 7.58 µM
86 | Cc1cc(Nc2cccc(F)c2)nc(NCc2ccccc2)n1 | 5.15 µM
87 | O=C(Nc1nc(-c2ccccn2)cs1)c1ccc(F)c(S(=O)(=O)N2CCOCC2)c1 | 7.51 µM
88 | Cc1ccccc1OCCn1c(C)nc2ccccc21 | 15.2 µM

Row | Compound | AC50
89 | Cc1ccn2c(Nc3ccccc3C)c(-c3ccccn3)nc2c1 | 9.55 µM
90 | CCOc1cc(/C=N/Nc2cc(C)nc(-n3nc(C)cc3C)n2)ccc1O | 5.78 µM
91 | Cc1[nH]n(-c2ccccc2)c(=O)c1N=Nc1c(O)cc(S(=O)(=O)N(C)C)c2ccccc12 | 3.72 µM
92 | Cn1nccc1C(=O)NC1CCCc2c1cnn2-c1ccccc1F (stereo not drawn) | 3.16 µM
93 | O=C(CNC(=O)c1ccccc1O)N/N=C/c1cc(Br)ccc1OC(=O)/C=C/c1ccco1 | 10.7 µM
94 | COc1ccc(-c2n(Cc3ccccc3)c3ccccc3[n+]2Cc2ccccc2)cc1 | 3.95 µM
95 | Cc1ccc(C)c(-c2csc(NC(=O)C3=COCCO3)n2)c1 | 7.67 µM
96 | CCc1ccc(C2CC(c3cccc(Cl)c3)n3nc(N)nc3N2)cc1 (stereo not drawn) | 14.7 µM
97 | CC(C)(C)c1ccc(C(O)CCCN2CCC(C(O)(c3ccccc3)c3ccccc3)CC2)cc1 (stereo not drawn) | 8.16 µM
98 | NC1=NC[C@H](Cc2ccc(O)cc2)N1CCCCC1CCCCC1 | 2.34 µM
99 | O=C(Nc1cccnc1)c1ccc([N+](=O)[O-])s1 | 15.3 µM
100 | Oc1ccc(COCc2ccccc2)c2cccnc12 | 4.28 µM
101 | CCOc1ccc(S(=O)(=O)NCc2ccncc2)cc1 | 1.65 µM
102 | COc1ccc(-n2c(-c3ccc(Cl)cc3)c[n+]3c2CCc2ccccc2-3)cc1 | 1.78 µM
103 | COc1ccccc1NC1=C(N2CCCCC2)C(=O)c2ccccc2C1=O | 2.21 µM
104 | O=C(N/N=C\c1cc(Cl)ccc1O)c1ccc(S(=O)(=O)N2CCCCC2)cc1 | 6.44 µM
105 | COc1cc(NC(=O)c2cc3ccccc3cc2O)c(OC)cc1Cl | 4.68 µM
106 | O=C(Nc1nc(-c2ccccn2)cs1)c1ccc([N+](=O)[O-])o1 | 6.03 µM
107 | O=C(OCn1ncc(Br)c(Br)c1=O)c1ccc(F)cc1 | 5.09 µM
108 | O=C(NCc1cccnc1)/C(=C\c1ccc(-c2cccc(Cl)c2)o1)S(=O)(=O)c1ccccc1 | 6.78 µM

— PubChem BioAssay AID463229 (Broad Institute, 2010)
